Experimental data: article PMC6424957 (Scientific Reports, 2019)
Where “and” joins values, the source holds several entries; their conditions need not be identical. Equal values may be shown once. Read-outs that look alike come from different tables or passages of the source.

What was measured:
[1] = molecular target: T1, peripheral anionic site (PAS) of EeAChE (Electrophorus electricus, UniProt O42275); type: binding; details: EeAChE 7 μM, propidium iodide 8 μM; for % Displacement of propidium iodide, 3 µM: compound 3 µM; for % Displacement of propidium iodide, 20 µM: compound 20 µM
T1 construct: from human erythrocyte and E. electricus (EeAChE) (type VI-S); purchased Sigma-Aldrich (Germany) type VI-S; host or cells: Electrophorus electricus tissue
From the text: The fluorescent assay used to evaluate competitive propidium iodide displacement from the PAS of AChE is commonly used as primary screening method of AChE pro-aggregation activity inhibitors. Propidium iodide is a selective ligand for the PAS of AChE responsible for Aβ binding.
EeAChE was used owing to its high degree of purification, high activity, and lower cost than human AChE. […] The fluorescence intensity of propidium iodide bound with AChE increases several times.
To determine the degree of displacement (% displacement) of propidium iodide from the PAS of AChE, EeAChE (final concentration 7 μM) was incubated with the test compound at a concentration of 3 and 20 μM in 1 mM Tris-HCl buffer pH 8.0, 25 °C for 15 min. Then, propidium iodide solution (final concentration 8 μM) was added, the samples were incubated for 15 min and the fluorescence spectrum (530 nm (excitation) and 600 nm (emission)) was taken. Donepezil and tacrine were used as reference compounds. The blank contained propidium iodide of the same concentration in 1 mM Tris-HCl buffer pH 8.0. The measurements were carried out in triplicate on a microplate reader FLUOStar Optima (BMG Labtech Germany).
The degree of displacement (% displacement) of propidium iodide from the peripheral anionic site of AChE was calculated by the following formula: %Displacement=100−(IFAChE+Propidium+inhibitor/IFAChE+Propidium)[…], where IFAChE + Propidium is the fluorescence intensity of the propidium associated with AChE in the absence of the test compound (taken as 100%), and IFAChE + Propidium + inhibitor is the fluorescence intensity of the propidium associated with AChE in the presence of the test compound.

[2] = ABTS radical cation scavenging assay; details: for ABTS·+ scavenging activity, TEAC value: Trolox equivalent antioxidant capacity, ratio of slopes compound/Trolox; for ABTS·+ scavenging activity, TEAC value / IC50: 1 h incubation; for IC50: concentration reducing ABTS·+ by 50%; for radical-scavenging activity, ABTS method: result in words
Procedure: This assay is based on the production of a stable dark green ABTS cation-radical (ABTS^·+) by incubating ABTS ([2,2′-azino-bis(3-eth-ylbenzothiazoline-6-sulfonic acid diammonium salt)) with potassium persulfate. […] The ABTS radical-scavenging activity of the compounds was measured according to an established method[66] with some modifications, at 30 °С in the dark; incubation time was 1 hour. […] The results were expressed as TEAC values (Trolox equivalent antioxidant capacity) calculated by dividing the slope of ABTS^·+ concentration decrease versus the antioxidant concentration by the slope of the Trolox plot.
Radical scavenging activity of the compounds was assessed using an ABTS radical decolorization assay[66] with some minor modifications. ABTS (2,2′-azino-bis-(3-ethylbenzothiazoline-6-sulfonic acid) diammonium salt) was purchased from TCI (Tokyo, Japan); potassium persulfate (di-potassium peroxodisulfate) and Trolox (6-hydroxy-2,5,7,8-tetramethychroman-2-carboxylic acid were obtained from Sigma-Aldrich Chemical Co. (St. Louis, MO, USA). Ethanol was HPLC grade. Aqueous solutions were prepared using deionized water.
Trolox was used as the antioxidant standard. A 5 mM solution of Trolox was prepared in DMSO for use as stock. Fresh working solutions of known concentrations (1–100 μM) were prepared on the day of experiments and used for calibration and as positive controls for ABTS radical cation (ABTS^•+) scavenging activity. ABTS was dissolved in deionized water to a 7 mM concentration. […] Fresh working ABTS^•+ solution was prepared for each assay.
The radical scavenging capacity of the compounds was analyzed by mixing 10 μl of compound with 240 μl of ABTS^•+ working solution. […] Ethanol blanks were run in each assay. Values were obtained from three replicates of each sample and three independent experiments.
Antioxidant capacity as a Trolox equivalent (TEAC values) was determined as the ratio between the slopes obtained from the linear correlation for concentrations of test compounds and Trolox with absorbance of ABTS radical.

[3] = molecular target: T2, human erythrocyte acetylcholinesterase (AChE) (Homo sapiens, UniProt P22303); experiment: biochemical; type: biochemical; details: mean ± SEM, n ≥ 3
T2 construct: Acetylcholinesterase (AChE, EC 3.1.1.7, from human erythrocyte); purchased Sigma-Aldrich (Germany); host or cells: human erythrocytes
Procedure: (§1) Acetylcholinesterase (AChE, EC 3.1.1.7, from human erythrocyte and E. electricus (EeAChE) (type VI-S), butyrylcholinesterase (BChE, EC 3.1.1.8, from equine serum), carboxylesterase (CaE, EC 3.1.1.1, from porcine liver), acetylthiocholine iodide (ATCh), butylthiocholine iodide (BTCh), 5,5′-dithiobis-(2-nitrobenzoic acid) (DTNB), 4-nitrophenyl acetate (4-NPA), were purchased from Sigma-Aldrich (Germany).
(§2) AChE and BChE activities were measured by the Ellman method as described earlier. The assay solution consisted of 0.1 M K/Na phosphate buffer pH 7.5, 25 °C with the addition of 0.33 mM DTNB, 0.02 unit/mL of AChE or BChE, and 1 mM of substrate (ATCh or BTCh, respectively). The assays were carried out with a reagent blank containing all components except AChE or BChE to account for non-enzymatic hydrolysis of substrate. In addition, an enzyme blank was included that contained all components except substrate to account for non-substrate sulfhydryl groups. […] The assay solution consisted of 0.1 M K/Na phosphate buffer pH 8.0, 25 °C with the addition of 1 mM 4-nitrophenyl acetate and 0.02 unit/mL of CaE. Assays were carried out with a blank containing all components except CaE.
(§3) The test compounds were dissolved in DMSO; the incubation mixture contained 2% (v/v) of the solvent. […] The test compounds were added to the assay solution and preincubated at 25°C with the enzymes for 5 min followed by the addition of substrate. A parallel control was made for the assay solution with no inhibitor. […] Each experiment was performed three times. The results were expressed as the mean ± SEM. The reaction rates in the presence and absence of inhibitor were compared, and the percent of residual enzyme activity due to the presence of test compounds was calculated.

[4] = molecular target: T3, equine serum butyrylcholinesterase (BChE) (Equus caballus, UniProt P81908); experiment: biochemical; type: biochemical; details: mean ± SEM, n ≥ 3
T3 construct: butyrylcholinesterase (BChE, EC 3.1.1.8, from equine serum); purchased Sigma-Aldrich (Germany); host or cells: equine serum
Procedure: as §1, §2, §3

[5] = molecular target: T4, Electrophorus electricus AChE (EeAChE) (Electrophorus electricus, UniProt O42275); experiment: biochemical; type: biochemical
T4 construct: from human erythrocyte and E. electricus (EeAChE) (type VI-S); purchased Sigma-Aldrich (Germany) type VI-S; host or cells: Electrophorus electricus tissue
Procedure: as §1, §2, §3

[6] = test system: isolated rat liver mitochondria; experiment: Inhibition of iron-induced lipid peroxidation (TBARs); details: read-out: IC50 of Fe3+-induced LP, LP induced by 0.5 mM Fe3+, mean ± SEM, n ≥ 3
[7] = mean ± SEM, n ≥ 3, read-out: EeAChE IC50

T1 sequence (O42275 24-633): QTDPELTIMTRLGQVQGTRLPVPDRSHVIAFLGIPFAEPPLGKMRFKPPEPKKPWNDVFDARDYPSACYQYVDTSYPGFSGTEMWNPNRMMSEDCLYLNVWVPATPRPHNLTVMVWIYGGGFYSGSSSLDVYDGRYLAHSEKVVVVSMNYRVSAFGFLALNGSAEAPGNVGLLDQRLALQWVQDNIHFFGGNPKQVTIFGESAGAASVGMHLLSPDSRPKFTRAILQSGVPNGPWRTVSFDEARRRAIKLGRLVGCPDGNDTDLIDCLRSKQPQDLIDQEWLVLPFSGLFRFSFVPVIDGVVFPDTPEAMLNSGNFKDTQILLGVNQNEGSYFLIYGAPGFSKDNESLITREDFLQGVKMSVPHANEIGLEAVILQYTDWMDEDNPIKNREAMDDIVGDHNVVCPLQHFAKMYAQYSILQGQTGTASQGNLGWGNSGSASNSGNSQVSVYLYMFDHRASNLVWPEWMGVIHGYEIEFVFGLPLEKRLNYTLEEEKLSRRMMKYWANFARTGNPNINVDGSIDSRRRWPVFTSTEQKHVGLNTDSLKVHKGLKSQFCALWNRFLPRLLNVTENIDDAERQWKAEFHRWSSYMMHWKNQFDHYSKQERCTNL
T4 sequence (O42275 24-633): as above
T3 sequence (P81908 whole entry): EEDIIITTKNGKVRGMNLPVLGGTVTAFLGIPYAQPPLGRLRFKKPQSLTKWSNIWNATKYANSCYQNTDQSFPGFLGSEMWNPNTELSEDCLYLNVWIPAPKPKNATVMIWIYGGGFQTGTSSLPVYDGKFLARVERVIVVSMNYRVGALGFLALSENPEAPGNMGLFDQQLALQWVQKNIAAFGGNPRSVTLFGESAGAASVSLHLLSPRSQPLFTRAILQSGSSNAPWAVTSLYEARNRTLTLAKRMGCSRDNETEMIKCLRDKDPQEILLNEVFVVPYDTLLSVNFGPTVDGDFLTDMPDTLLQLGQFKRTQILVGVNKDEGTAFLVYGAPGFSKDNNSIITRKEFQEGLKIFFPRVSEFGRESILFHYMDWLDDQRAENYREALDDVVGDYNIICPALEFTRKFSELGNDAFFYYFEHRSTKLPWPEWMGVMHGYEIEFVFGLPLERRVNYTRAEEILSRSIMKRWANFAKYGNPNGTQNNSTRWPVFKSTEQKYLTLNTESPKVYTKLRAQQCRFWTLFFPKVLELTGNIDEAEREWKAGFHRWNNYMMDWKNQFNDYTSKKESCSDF
T2 sequence (P22303 32-617 isoform P22303-2 limits assumed): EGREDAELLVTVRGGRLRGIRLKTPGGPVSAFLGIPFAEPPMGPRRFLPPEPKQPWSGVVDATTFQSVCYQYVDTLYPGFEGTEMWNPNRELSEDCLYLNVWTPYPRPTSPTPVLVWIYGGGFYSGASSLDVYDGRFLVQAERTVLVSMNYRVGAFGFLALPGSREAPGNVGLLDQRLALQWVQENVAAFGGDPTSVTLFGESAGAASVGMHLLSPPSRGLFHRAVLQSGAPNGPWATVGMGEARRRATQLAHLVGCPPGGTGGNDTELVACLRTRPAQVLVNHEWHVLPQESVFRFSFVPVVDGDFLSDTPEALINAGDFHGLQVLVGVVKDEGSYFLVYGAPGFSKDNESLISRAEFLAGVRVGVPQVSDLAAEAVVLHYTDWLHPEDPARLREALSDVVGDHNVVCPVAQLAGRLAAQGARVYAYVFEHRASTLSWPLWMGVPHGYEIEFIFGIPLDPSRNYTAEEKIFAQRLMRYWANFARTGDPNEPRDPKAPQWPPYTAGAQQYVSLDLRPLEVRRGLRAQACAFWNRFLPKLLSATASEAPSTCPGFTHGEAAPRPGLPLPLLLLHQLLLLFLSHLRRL

| SMILES | % Displacement of propidium iodide, 3 µM [1] | % Displacement of propidium iodide, 20 µM [1] | ABTS·+ scavenging activity, TEAC value [2] | IC50 [2] [nM] | IC50 [3] [nM] | IC50 [4] [nM] | IC50 [5, 7] [nM] | IC50 [6] [nM] | radical-scavenging activity, ABTS method [2] | IC50 [5] [nM] |
| --- | --- | --- | --- | --- | --- | --- | --- | --- | --- | --- |
| Cc1ccc2c(c1)c1c(n2CCC(=O)N2c3ccc(N(C)C)cc3Sc3cc(N(C)C)ccc32)CCN(C)C1 [Compound 3] | 8.1 ± 0.7% | 35.6 ± 1.5% | 0.79 ± 0.06 | 27500 ± 1640 | 1730 ± 110 | 1820 ± 140 | 1470 ± 80 | 2290 ± 470 | – | – |
| CN1CCc2c(c3ccccc3n2CCC(=O)N2c3ccc(N(C)C)cc3Sc3cc(N(C)C)ccc32)C1.Cl.Cl.Cl [Compound 1] | – | – | 0.63 ± 0.045 | 35400 ± 3400 | 3170 ± 130 | 5940 ± 550 | 830 ± 30 | 1450 ± 290 | – | – |
| CN(C)c1ccc2c(c1)Sc1cc(N(C)C)ccc1N2 [MBH2, leucomethylene blue, reference compound] | 17.7 ± 1.8% | 36.9 ± 3.3% | – | – | 1760 ± 90 | 10700 ± 200 | – | 1580 ± 490 | not detectable | 280 ± 20 |
| CN(C)c1ccc2nc3ccc(=[N+](C)C)cc-3sc2c1 [MB, methylene blue, reference compound] | 20% and 20.9 ± 1.9% | 40% and 40.8 ± 3.7% | – | – | – | 11100 ± 100 | – | 4000 ± 600 | not detectable | 210 ± 20 |
| Cc1ccc2c(c1)c1c(n2CCC(=O)N2c3ccc(N(C)C)cc3Sc3cc(N(C)C)ccc32)CCN(C(C)C)C1.Cl.Cl.Cl [Compound 6] | 7.7 ± 0.5% | 30.0 ± 0.9% | 0.96 ± 0.07 | 21200 ± 1750 | 7370 ± 420 | 970 ± 50 | 1070 ± 80 | 580 ± 30 | – | – |
| CN1CCc2c(c3cc(F)ccc3n2CCC(=O)N2c3ccc(N(C)C)cc3Sc3cc(N(C)C)ccc32)C1 [Compound 7] | 6.7 ± 0.5% | 29.8 ± 2.1% | 1.08 ± 0.08 | 19000 ± 2280 | 6860 ± 320 | 10500 ± 900 | 2090 ± 190 | 3200 ± 400 | – | – |
| CCN1CCc2c(c3ccccc3n2CCC(=O)N2c3ccc(N(C)C)cc3Sc3cc(N(C)C)ccc32)C1.Cl.Cl.Cl [Compound 2] | 12.9 ± 1.1% | 37.1 ± 2.0% | 1.03 ± 0.07 | 19100 ± 1520 | 2950 ± 70 | 2530 ± 220 | 670 ± 40 | 680 ± 70 | – | – |
| CCN1CCc2c(c3cc(C)ccc3n2CCC(=O)N2c3ccc(N(C)C)cc3Sc3cc(N(C)C)ccc32)C1.Cl.Cl.Cl [Compound 4] | 11.8 ± 0.6% | 37.6 ± 1.8% | 0.99 ± 0.08 | 20500 ± 2050 | 4030 ± 360 | 17900 ± 1400 | 650 ± 50 | 710 ± 10 | – | – |
| CCCN1CCc2c(c3cc(C)ccc3n2CCC(=O)N2c3ccc(N(C)C)cc3Sc3cc(N(C)C)ccc32)C1.Cl.Cl.Cl [Compound 5] | 14.2 ± 0.9% | 35.1 ± 0.9% | 0.99 ± 0.05 | 19600 ± 1820 | 3950 ± 210 | 8420 ± 830 | 800 ± 70 | 750 ± 10 | – | – |
